Measured values: article PMC11790914, “Chemogenomics for steroid hormone receptors (NR3)” (Communications Chemistry, 2025)
Values joined by “and” are separate entries in the source; they are usually repeats but may differ in a detail not shown here. Equal entries are not always repeated.

Assays:
HEK293T cells [1] = test: Cytotoxicity: necrosis induction (red fluorescent dye for permeable plasma membranes); format: cell-based; settings: 24 h, necrotic cell count normalized to 0.1% DMSO, single replicates;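 note: compounds applied in DMEM high glucose with 0.1% FCS and 0.1% DMSO, necrotic HEK293T cells counted by red staining of cells whose plasma membranes had become permeable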
Procedure: Cells were incubated with the test compounds at the indicated concentrations solubilized with 0.1% DMSO for 24 h. […] Necrotic cells were detected with a red fluorescent dye that labels cells with permeable plasma membranes after 24 h treatment and the necrotic cell count was normalized to 0.1% DMSO treated cells (n = 4). e NR family selectivity profiling of NR3 CG compound candidates in uniform Gal4-hybrid reporter gene assays for selected NR representing the NR1, NR2, NR4 and NR5 families.
HEK293T cells (German Collection of Microorganisms and Cell Culture GmbH, DSMZ; #ACC305) were cultured in DMEM high glucose, supplemented with 10% fetal calf serum (FCS), sodium pyruvate (1 mM), penicillin (100 µ/mL) and streptomycin (100 µg/mL) at 37 °C and 5% (v/v) CO2, and seeded in pre-coated (10 µg/mL collagen G solution (Merck KgaA; #L7213) for 30 min at 37 °C) 96-well plates (2 × 10^5 cells per well). After 24 h, the cells were treated with the respective NR3 CG compound candidate at the recommended concentration, bexarotene (100 µM) or doxorubicin (30 µM) as positive controls in DMEM high glucose supplemented with 0.1% FCS, penicillin (100 µ/mL), streptomycin (100 µg/mL) and 0.1% DMSO, or 0.1% DMSO alone as an untreated control. Each sample was prepared in at least four biologically independent replicates. […] Before drug administration, after the first medium exchange, 24 h after drug administration, and after fluorescence imaging cell confluence was assessed using the Tecan Spark Cyto, to account for changes in cell confluence due to drug administration and cell handling. Compound effects on cell confluence, apoptosis, metabolic activity and necrosis were normalized to the vehicle control of each biological replicate individually.

Gal4-VP16 = format: cell-based; settings: 3 µM; vs. DMSO ctrl; single replicates n=1-3
ABL1 = target: T1, ABL1 (Homo sapiens, UniProt P00519); test: Liability panel screening by DSF: ABL1; format: binding; settings: DSF, 20 µM, n=2; read-out: Mean ΔTM ABL1
T1 construct: made in house
Outline: (§1)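 ∆Tm in K was taken from Boltzmann-fitted unfolding inflection points, run in duplicate with a temperature ramp of 3 °C per minute up to 85 °C. Each recombinant protein (2 µM) was in HEPES 10 mM pH 7.5 and NaCl 500 mM, with SYPRO Orange dye at 1:1000.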

AURKA = target: T2, AURKA (Homo sapiens, UniProt O14965); test: Liability panel screening by DSF: AURKA; format: binding; settings: DSF, 20 µM, n=2; read-out: Mean ΔTM AURKA
T2 construct: made in house
T2 sequence (O14965 1-403): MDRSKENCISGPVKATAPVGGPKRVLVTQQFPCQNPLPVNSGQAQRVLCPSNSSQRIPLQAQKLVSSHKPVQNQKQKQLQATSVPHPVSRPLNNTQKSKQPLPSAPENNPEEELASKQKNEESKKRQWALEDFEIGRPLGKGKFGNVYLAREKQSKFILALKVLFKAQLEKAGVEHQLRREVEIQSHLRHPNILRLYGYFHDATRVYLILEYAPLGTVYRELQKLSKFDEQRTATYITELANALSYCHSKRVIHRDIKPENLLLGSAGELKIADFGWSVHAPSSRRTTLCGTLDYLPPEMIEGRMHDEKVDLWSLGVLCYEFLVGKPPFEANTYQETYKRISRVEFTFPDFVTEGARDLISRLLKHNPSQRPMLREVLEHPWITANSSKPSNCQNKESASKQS
Outline: as §1

CDK2 = target: T3, CDK2 (Homo sapiens, UniProt P24941); test: Liability panel screening by DSF: CDK2; format: binding; settings: DSF, 20 µM, n=2; read-out: Mean ΔTM CDK2
T3 construct: made in house
Outline: as §1

FGFR3 = target: T4, FGFR3 (Homo sapiens, UniProt P22607); test: Liability panel screening by DSF: FGFR3; format: binding; settings: DSF, 20 µM, n=2; read-out: Mean ΔTM FGFR3
T4 construct: made in house
Outline: as §1

GSK3B = target: T5, GSK3B (Homo sapiens, UniProt P49841); test: Liability panel screening by DSF: GSK3B; format: binding; settings: DSF, 20 µM, n=2; read-out: Mean ΔTM GSK3B
T5 construct: made in house

BRD4 = target: T6, BRD4 (Homo sapiens, UniProt O60885); test: Liability panel screening by DSF: BRD4; format: binding; settings: DSF, 20 µM, n=2; read-out: Mean ΔTM BRD4
T6 construct: This panel comprised ten highly ligandable kinases and bromodomains; made in house
Outline: as §1

BRPF1 = target: T7, BRPF1 (Homo sapiens, UniProt P55201); test: Liability panel screening by DSF: BRPF1; format: binding; settings: DSF, 20 µM, n=2; read-out: Mean ΔTM BRPF1
T7 construct: This panel comprised ten highly ligandable kinases and bromodomains; made in house
T7 sequence (P55201 628-732 limits assumed): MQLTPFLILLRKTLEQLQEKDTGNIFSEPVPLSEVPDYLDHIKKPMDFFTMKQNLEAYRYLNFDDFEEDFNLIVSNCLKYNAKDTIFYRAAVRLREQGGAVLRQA
Outline: as §1

CSNK1D = target: T8, CSNK1D (Homo sapiens, UniProt P48730); test: Liability panel screening by DSF: CSNK1D; format: binding; settings: DSF, 20 µM, n=2; read-out: Mean ΔTM CSNK1D
T8 construct: made in house
Outline: as §1

MAPK1 = target: T9, MAPK1 (Homo sapiens, UniProt P28482); test: Liability panel screening by DSF: MAPK1; format: binding; settings: DSF, 20 µM, n=2; read-out: Mean ΔTM MAPK1
T9 construct: made in house
Outline: as §1

TRIM24 = target: T10, TRIM24 (Homo sapiens, UniProt O15164); test: Liability panel screening by DSF: TRIM24; format: binding; settings: DSF, 20 µM, n=2; read-out: Mean ΔTM TRIM24
T10 construct: This panel comprised ten highly ligandable kinases and bromodomains; made in house
T10 sequence (O15164 899-1004 limits assumed): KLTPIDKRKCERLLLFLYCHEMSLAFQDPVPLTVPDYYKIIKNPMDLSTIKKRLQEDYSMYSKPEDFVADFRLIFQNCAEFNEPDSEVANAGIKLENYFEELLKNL
Outline: as §1

[2] = tested on: NF-κB activity in HEK293 NF-κB reporter cells; test: NF-kB activity assay (GFP reporter, ionomycin/PMA); format: cell-based; settings: n=3
Outline: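 Reporter readout: GFP-expressing cells normalized to confluence, imaged every 90 min across 24 h after ionomycin (100 ng/mL)/PMA (10 ng/mL) stimulation of HEK293 cells pre-treated 4 h with compound (0.1% DMSO); triplicate independent experiments.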

[3] = tested on: ATF6 activity in Hela ATF6 reporter cells; test: Endoplasmic reticulum stress assay (ATF6 Renilla luciferase reporter, tunicamycin); format: cell-based
Outline: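 ER stress was induced by 100 ng/mL tunicamycin added 4 h after compound (0.1% DMSO) to HeLa ATF6 reporter cells. After 18 h more, Renilla luciferase signal was read and expressed relative to DMSO control, n=5 biological replicates.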

NR3B2 (ERRβ) = settings: ref Supplementary Table 1; cited from earlier work
NR3B3 (ERRγ) = settings: ref Supplementary Table 1, cited from earlier work
HEK293T cells [4] = test: Cytotoxicity: metabolic activity (WST-8 / CCK-8 assay); settings: HEK293T, 24 h, WST-8, normalized to 0.1% DMSO, single replicates
HEK293T cells [5] = test: Cytotoxicity: growth-rate (change in confluence over 24 h); settings: normalized to 0.1% DMSO control, single replicates (n=1...)
HEK293T cells [6] = test: Cytotoxicity: apoptosis induction (caspase-3/7 DEVD fluorogenic DNA dye); settings: HEK293T, 24 h, apoptotic cell count normalized to 0.1% DMSO, single replicates

T4 sequence (P22607 23-806, species assumed): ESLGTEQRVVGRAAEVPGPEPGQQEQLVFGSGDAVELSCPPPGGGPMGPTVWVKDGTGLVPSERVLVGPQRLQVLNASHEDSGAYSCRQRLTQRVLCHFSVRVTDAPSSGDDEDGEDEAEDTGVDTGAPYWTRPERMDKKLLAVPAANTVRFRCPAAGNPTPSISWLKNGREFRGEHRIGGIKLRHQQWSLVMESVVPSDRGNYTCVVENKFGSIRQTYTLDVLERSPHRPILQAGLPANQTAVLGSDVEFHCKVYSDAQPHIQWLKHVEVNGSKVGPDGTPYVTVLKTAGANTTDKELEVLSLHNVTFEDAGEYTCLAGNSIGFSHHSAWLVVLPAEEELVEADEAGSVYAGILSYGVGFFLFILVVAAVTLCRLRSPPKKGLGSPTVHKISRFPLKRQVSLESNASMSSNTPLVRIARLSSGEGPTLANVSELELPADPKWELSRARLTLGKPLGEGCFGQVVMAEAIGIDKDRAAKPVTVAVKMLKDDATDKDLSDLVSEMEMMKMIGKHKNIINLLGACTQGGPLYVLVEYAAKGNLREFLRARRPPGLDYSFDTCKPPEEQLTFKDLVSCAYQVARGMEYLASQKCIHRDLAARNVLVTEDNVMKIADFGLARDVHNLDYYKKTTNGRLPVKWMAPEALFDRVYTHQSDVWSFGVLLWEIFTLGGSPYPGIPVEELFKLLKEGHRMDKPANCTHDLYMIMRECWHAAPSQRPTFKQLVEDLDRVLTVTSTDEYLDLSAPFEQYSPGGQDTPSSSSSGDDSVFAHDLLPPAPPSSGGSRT
T9 sequence (P28482 whole entry, species assumed): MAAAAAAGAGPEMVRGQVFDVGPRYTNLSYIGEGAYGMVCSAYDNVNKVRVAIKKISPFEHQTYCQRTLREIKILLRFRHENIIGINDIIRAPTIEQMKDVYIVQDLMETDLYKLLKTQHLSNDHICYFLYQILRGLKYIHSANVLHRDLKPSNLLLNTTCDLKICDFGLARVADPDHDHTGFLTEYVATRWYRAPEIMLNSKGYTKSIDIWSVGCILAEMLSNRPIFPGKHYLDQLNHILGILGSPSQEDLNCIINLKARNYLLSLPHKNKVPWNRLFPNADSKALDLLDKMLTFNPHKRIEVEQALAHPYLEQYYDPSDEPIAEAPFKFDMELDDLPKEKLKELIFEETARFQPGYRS
T1 sequence (P00519 whole entry, species assumed): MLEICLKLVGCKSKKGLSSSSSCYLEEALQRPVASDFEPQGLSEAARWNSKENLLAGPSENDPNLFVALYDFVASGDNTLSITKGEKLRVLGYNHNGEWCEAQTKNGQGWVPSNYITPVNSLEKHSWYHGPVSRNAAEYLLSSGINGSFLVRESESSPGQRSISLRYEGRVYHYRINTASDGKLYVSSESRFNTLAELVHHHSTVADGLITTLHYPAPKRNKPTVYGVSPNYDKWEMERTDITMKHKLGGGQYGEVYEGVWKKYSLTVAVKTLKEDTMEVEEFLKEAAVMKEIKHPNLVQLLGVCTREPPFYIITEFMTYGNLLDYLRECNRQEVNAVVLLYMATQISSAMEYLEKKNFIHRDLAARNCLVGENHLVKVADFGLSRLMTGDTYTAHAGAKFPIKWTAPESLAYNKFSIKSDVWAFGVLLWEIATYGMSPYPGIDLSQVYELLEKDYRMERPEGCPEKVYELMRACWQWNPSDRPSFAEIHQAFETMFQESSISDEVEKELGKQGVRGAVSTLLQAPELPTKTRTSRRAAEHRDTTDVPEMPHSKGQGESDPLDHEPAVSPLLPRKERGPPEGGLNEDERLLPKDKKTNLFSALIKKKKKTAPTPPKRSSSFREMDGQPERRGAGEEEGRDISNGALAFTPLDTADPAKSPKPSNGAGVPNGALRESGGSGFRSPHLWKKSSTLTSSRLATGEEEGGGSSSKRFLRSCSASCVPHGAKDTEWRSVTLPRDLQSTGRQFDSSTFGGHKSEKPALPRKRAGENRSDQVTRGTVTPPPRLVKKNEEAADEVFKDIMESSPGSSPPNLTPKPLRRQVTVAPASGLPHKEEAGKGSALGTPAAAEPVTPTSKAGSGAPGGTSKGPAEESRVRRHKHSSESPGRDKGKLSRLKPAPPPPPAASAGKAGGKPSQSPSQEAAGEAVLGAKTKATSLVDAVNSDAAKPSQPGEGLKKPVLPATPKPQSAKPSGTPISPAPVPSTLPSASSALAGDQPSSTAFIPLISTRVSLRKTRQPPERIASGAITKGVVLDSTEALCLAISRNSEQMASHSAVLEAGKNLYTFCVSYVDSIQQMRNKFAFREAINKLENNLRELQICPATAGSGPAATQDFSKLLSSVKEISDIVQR
T5 sequence (P49841 whole entry, species assumed): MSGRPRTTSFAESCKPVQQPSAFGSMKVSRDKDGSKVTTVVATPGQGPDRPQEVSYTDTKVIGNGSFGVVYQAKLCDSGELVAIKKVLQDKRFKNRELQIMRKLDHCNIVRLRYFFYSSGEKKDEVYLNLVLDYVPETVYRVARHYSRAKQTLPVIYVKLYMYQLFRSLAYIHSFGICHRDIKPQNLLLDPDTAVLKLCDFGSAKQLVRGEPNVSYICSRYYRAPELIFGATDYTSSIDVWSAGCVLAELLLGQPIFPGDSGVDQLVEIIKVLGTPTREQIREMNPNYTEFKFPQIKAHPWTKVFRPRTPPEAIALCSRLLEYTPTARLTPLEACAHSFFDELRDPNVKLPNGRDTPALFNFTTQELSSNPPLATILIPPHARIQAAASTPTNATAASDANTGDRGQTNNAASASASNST
T8 sequence (P48730 whole entry, species assumed): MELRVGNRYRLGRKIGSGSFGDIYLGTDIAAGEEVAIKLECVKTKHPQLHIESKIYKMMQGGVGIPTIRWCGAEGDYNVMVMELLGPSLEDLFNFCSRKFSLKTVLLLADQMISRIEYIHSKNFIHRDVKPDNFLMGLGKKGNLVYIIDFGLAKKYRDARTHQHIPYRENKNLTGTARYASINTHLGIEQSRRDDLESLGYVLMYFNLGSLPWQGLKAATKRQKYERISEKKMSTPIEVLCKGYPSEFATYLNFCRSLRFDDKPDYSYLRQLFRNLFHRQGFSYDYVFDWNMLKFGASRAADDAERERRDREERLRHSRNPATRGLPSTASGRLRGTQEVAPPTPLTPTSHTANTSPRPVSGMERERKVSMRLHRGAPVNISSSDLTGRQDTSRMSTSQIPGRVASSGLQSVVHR

CC(C)c1ccc(/C=N/NC(=O)c2ccc(O)cc2)cc1 [GSK4716]
Necrosis induction [NI] (HEK293T cells [1]; 3 µM): 0.73 and 0.72 and 1.06 and 0.88
VP16 control [fold reporter gene activity] (Gal4-VP16): 1.46 fold reporter gene activity and 1.30 fold reporter gene activity and 1.47 fold reporter gene activity
ΔTm at 20 µM (ABL1): 1.07 °C
ΔTm at 20 µM (AURKA): 0.71 °C
ΔTm at 20 µM (CDK2): 1.04 °C
ΔTm at 20 µM (FGFR3): 0.7 °C
ΔTm at 20 µM (GSK3B): -3.45 °C
ΔTm at 20 µM (BRD4): -0.72 °C
ΔTm at 20 µM (BRPF1): 0.6 °C
ΔTm at 20 µM (CSNK1D): -0.73 °C
ΔTm at 20 µM (MAPK1): 0.09 °C
ΔTm at 20 µM (TRIM24): 0.64 °C
Mean NFκB response ([2]; 3 µM, 1,5 h): 3350.67 GFP+-cells/confluence ∙ 1000
Mean NFκB response ([2]; 3 µM, 4,5 h): 4011.96 GFP+-cells/confluence ∙ 1000
Mean NFκB response ([2]; 3 µM, 7,5 h): 8902.65 GFP+-cells/confluence ∙ 1000
Mean NFκB response ([2]; 3 µM, 10,5 h): 19241.33 GFP+-cells/confluence ∙ 1000
Mean NFκB response ([2]; 3 µM, 13,5 h): 27824.67 GFP+-cells/confluence ∙ 1000
Mean NFκB response ([2]; 3 µM, 16,6 h): 34184.33 GFP+-cells/confluence ∙ 1000
Mean NFκB response ([2]; 3 µM, 19,5 h): 38593.33 GFP+-cells/confluence ∙ 1000
Mean NFκB response ([2]; 3 µM, 22,5 h): 41930.00 GFP+-cells/confluence ∙ 1000
Mean NFκB response ([2]; 3 µM, 3 h): 3264.72 GFP+-cells/confluence ∙ 1000
Mean NFκB response ([2]; 3 µM, 6 h): 5255.77 GFP+-cells/confluence ∙ 1000
Mean NFκB response ([2]; 3 µM, 9 h): 14135.33 GFP+-cells/confluence ∙ 1000
Mean NFκB response ([2]; 3 µM, 12 h): 23629.33 GFP+-cells/confluence ∙ 1000
Mean NFκB response ([2]; 3 µM, 15 h): 31599.67 GFP+-cells/confluence ∙ 1000
Mean NFκB response ([2]; 3 µM, 18 h): 36410.00 GFP+-cells/confluence ∙ 1000
Mean NFκB response ([2]; 3 µM, 21 h): 40543.33 GFP+-cells/confluence ∙ 1000
Mean NFκB response ([2]; 3 µM, 24 h): 43546.67 GFP+-cells/confluence ∙ 1000
ATF6 activity (tunicamycin-induced endoplasmic reticulum stress) ([3]; Hela ATF6 reporter cells, tunicamycin 100 ng/mL, 18 h, compounds at recommended concentrations, n = 5): strongly ameliorated the tunicamycin-induced endoplasmic reticulum stress
activity at 3 µM ([3]; Homo sapiens, HeLa, 3 µM, single replicates n=1 to n=5, read-out: ER stress [rel. ATF6 activity]): 15%
rel. activity from literature, NR3B2 (ERRβ): fold activation (NR3B2 (ERRβ)): 10 fold
rel. activity from literature, NR3B3 (ERRγ): fold activation (NR3B3 (ERRγ)): 6 fold
Metabolic activity [MA] (HEK293T cells [4]; 3 µM): 1.04 and 0.92 and 0.86 and 0.83 and 0.84 (2×) and 0.81 and 0.76
Growth rate [GR] (HEK293T cells [5]; 3 µM): 0.56 and 4.17 and 0.59 and 0.95 and 0.79 and 0.39 and 0.32 and 1.23 and 0.96 and 33.22
Apoptosis induction [AI] (HEK293T cells [6]; 3 µM): 1.16 and 0.91 and 0.96 and 0.89 and 0.51 and 0.66

CC(C)(c1ccc(O)cc1)c1ccc(O)cc1 [Bisphenol A]
Necrosis induction [NI] (HEK293T cells [1]; 0.3 µM): 0.87 and 0.82 and 0.90 and 1.20
ΔTm at 20 µM (ABL1): 0.26 °C
ΔTm at 20 µM (AURKA): 0.19 °C
ΔTm at 20 µM (CDK2): 1.16 °C
ΔTm at 20 µM (FGFR3): 0.44 °C
ΔTm at 20 µM (BRD4): -2.63 °C
ΔTm at 20 µM (BRPF1): -2.21 °C
ΔTm at 20 µM (MAPK1): 0.26 °C
ΔTm at 20 µM (TRIM24): -1.35 °C
Mean NFκB response ([2]; 0.3 µM, 1,5 h): 2380.54 GFP+-cells/confluence ∙ 1000
Mean NFκB response ([2]; 0.3 µM, 4,5 h): 2758.19 GFP+-cells/confluence ∙ 1000
Mean NFκB response ([2]; 0.3 µM, 7,5 h): 7233.84 GFP+-cells/confluence ∙ 1000
Mean NFκB response ([2]; 0.3 µM, 10,5 h): 19121.46 GFP+-cells/confluence ∙ 1000
Mean NFκB response ([2]; 0.3 µM, 13,5 h): 28203.30 GFP+-cells/confluence ∙ 1000
Mean NFκB response ([2]; 0.3 µM, 16,6 h): 34624.31 GFP+-cells/confluence ∙ 1000
Mean NFκB response ([2]; 0.3 µM, 19,5 h): 39396.74 GFP+-cells/confluence ∙ 1000
Mean NFκB response ([2]; 0.3 µM, 22,5 h): 42069.32 GFP+-cells/confluence ∙ 1000
Mean NFκB response ([2]; 0.3 µM, 3 h): 2422.37 GFP+-cells/confluence ∙ 1000
Mean NFκB response ([2]; 0.3 µM, 6 h): 3882.85 GFP+-cells/confluence ∙ 1000
Mean NFκB response ([2]; 0.3 µM, 9 h): 13703.44 GFP+-cells/confluence ∙ 1000
Mean NFκB response ([2]; 0.3 µM, 12 h): 24104.26 GFP+-cells/confluence ∙ 1000
Mean NFκB response ([2]; 0.3 µM, 15 h): 31750.86 GFP+-cells/confluence ∙ 1000
Mean NFκB response ([2]; 0.3 µM, 18 h): 37025.53 GFP+-cells/confluence ∙ 1000
Mean NFκB response ([2]; 0.3 µM, 21 h): 40865.92 GFP+-cells/confluence ∙ 1000
Mean NFκB response ([2]; 0.3 µM, 24 h): 43618.62 GFP+-cells/confluence ∙ 1000
activity at 0.3 µM ([3]; Homo sapiens, HeLa, 0.3 µM, single replicates n=1 to n=5, read-out: ER stress [rel. ATF6 activity]): 96%
IC50 (NR3B3 (ERRγ); (lit.), read-out: Potency [nM] IC50, NR3B3 (ERRγ)): 13 ± 2 nM
Metabolic activity [MA] (HEK293T cells [4]; 0.3 µM): 1.05 (2×) and 0.84 and 0.94 and 1.07 and 0.99 (2×) and 1.13
Growth rate [GR] (HEK293T cells [5]; 0.3 µM): 0.54 and 1.52 and 0.90 (2×) and 1.13 and 0.87 and 0.95 and 0.88 and 2.38 and 0.44
Apoptosis induction [AI] (HEK293T cells [6]; 0.3 µM): 0.73 and 0.80 and 0.66 and 1.02 and 0.52 and 0.91
